# Measured values reported in patent US12404345B2, “Humanized antibodies against iRHOM2” (SCIRHOM GMBH, priority 2021, dated 2025).
# Tested on: PMA-induced release of endogenous HB-EGF from human PBMCs from healthy donors
# Assay: ELISA-based HB-EGF release assay, PMA-induced, PBMCs from healthy donors
# Assay type: cell-based
# Settings: PBMC, Batimastat 10 μM, PMA 25 ng/ml, 24 hours
# Protocol: In the following study, ELISA-based HB-EGF release assays were performed to analyze the inhibitory effects of the antibodies of the invention on PMA-induced release of endogenous HB-EGF from primary human material obtained from healthy donors using peripheral blood mononuclear cells (PBMCs).
# In brief, on day 1, Nunc black MaxiSorp® 96-well plates (Thermo Fisher Scientific, USA) were coated overnight with 100 μl per well of mouse anti-human HB-EGF capture antibody (provided as part of the DuoSet ELISA kit) at 2 μg/ml TBS at 4° C. […]
# After 4 times washing with 350 μl TBS-T (Carl Roth, Germany) per well on a 96-head plate washer (Tecan Group, Switzerland) and careful removal of all buffer traces after the fourth cycle, 100 μl streptavidin-AP (R&D Systems, USA) diluted 1:10,000 in TBS were added to each well and, again protected from direct light, plates were incubated at room temperature for 30 minutes. […] Using an infinite M1000 (Tecan Group, Switzerland) microplate reader, the fluorescence of each well was collected at an excitation wavelength of 435 nm and an emission wavelength of 555 nm.
structure (smiles),measurement,value
CNC(=O)[C@H](Cc1ccccc1)NC(=O)[C@H](CC(C)C)[C@H](CSc1cccs1)C(=O)NO [Batimastat],inhibition at 10 µM,100%
